Source: the METLIN SMRT retention time set (Domingo-Almenara et al. 2019)

Assay: gradient 5% acetonitrile 3 min, to 50% in 2 min, to 85% in 15 min, held 3 min, 100 µL/min
Details: column: Zorbax Extend-C18 2.1 x 50 mm; eluents: water / acetonitrile, 0.1% formic acid
Outline: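 Retention time was recorded from adduct peaks, which were picked computationally and each inspected manually. Pure standards ran in mixtures of ~100 molecules on HPLC coupled to a quadrupole time-of-flight mass spectrometer, in positive and negative ionization mode, through a Zorbax Extend-C18 column (2.1 × 50 mm, 1.8 μm) at 100 μL/min. Eluents were water and acetonitrile, each with 0.1% formic acid.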

Compound	RP-LC retention time [s]
O=C(Nc1ccccc1C(F)(F)F)C1CCCN(C(=O)Cc2cccc3ccccc23)C1 (stereo unspecified)	998
CC(=O)N1CCc2ccc(C(=O)N3CCOCC3)cc21	602
CCOc1ccccc1N1CCN(CC(O)c2ccc3c(c2)OCO3)CC1 (stereo unspecified)	664
CC(C)Cn1c(=O)c(C(=O)NCCCN2CCCCC2)nc2cccnc21	642
CCc1nnc([C@@H]2CC(F)(F)CN2C(=O)Cn2nc(C)cc2C)o1	612
Cc1c(CC(=O)NCC(C)C)c(=O)n2nc(-c3ccccc3)nc2n1C	717
CCOC(=O)c1c(S(=O)(=O)N2CCC(C(=O)Nc3ccc(F)c(F)c3)CC2)c(C)n(C)c1C	890
NC(=O)C1CCN(C(=O)CN2CCc3ccccc32)CC1	610
COc1ccccc1C(=O)N1CCC2(CC1)NC(=O)c1ccc(F)cc1N2C	725
Cc1ccc(C)c(S(=O)(=O)N2CCC3(CC2)NCCN=C3NCc2ccccc2F)c1	757
Cc1cc(C2CCCN2C(=O)Nc2cccc(Cl)c2C)on1 (stereo unspecified)	794
CCC(C(=O)N1CCn2c(C)nnc2C1)c1ccccc1 (stereo unspecified)	643
O=c1c2scc(-c3ccc(F)cc3)c2ncn1Cc1ccc(Br)cc1	1180
COc1cccc(Nc2c(-c3ccccc3)nc3cnccn23)c1	828
Cc1cc(NC(=O)C2CCN(S(=O)(=O)c3cn(C(C)C)cn3)CC2)ccc1Br	876
COc1ccc(-c2noc(C3CC(=O)N(c4ccccc4)C3)n2)cc1OC (stereo unspecified)	964
O=C(CCC1CCCCC1)Nc1cccc(-c2cn3cccnc3n2)c1	823
Fc1cnccc1CN1CC[C@@H]2CN(Cc3ccccc3)[C@@H]2C1	597
O=C(NCCc1c[nH]c2ccccc12)c1ccc(N2C(=O)CCS2(=O)=O)cc1Cl	777
O=C(CNC(=O)c1cccc(F)c1)Nc1nc2ccccc2[nH]1	613
O=C(CN1C(=O)C2CCCCN2c2ccc(C(=O)N3CCCC3)cc21)Nc1ccncc1 (stereo unspecified)	622
COc1cc(C(=O)Nc2nc(-c3ccc(F)cc3)cs2)cc(OC)c1OC	1040
O=C(CC1c2ncccc2C(=O)N1Cc1ccc(F)cc1)NCc1cc(F)ccc1F (stereo unspecified)	735
COc1ccc(NC(=O)N2[C@H]3CC[C@@H]2c2cnc(C)nc2C3)c(C)c1	645
CC(C)NS(=O)(=O)c1ccc(Cl)c(-c2nnc(-c3ccccc3)o2)c1	977
Cn1cc(S(=O)(=O)N2CCCCC2)cc1C(=O)Nc1ccc(F)c(Cl)c1	1100
O=C(CNC(=O)C1COc2ccccc2O1)NCCc1c[nH]c2ccccc12 (stereo unspecified)	780

Compound	RP-LC retention time [s]
Cc1nc(-c2cc(S(=O)(=O)N3CCC(C(=O)N4CCOCC4)CC3)c(C)s2)no1	742
O=C1c2cccc(OCC(=O)N3CCCc4ccccc43)c2CCN1Cc1cccnc1	594
O=C(Cc1csc(-n2cccc2)n1)NCCc1c[nH]c2ccccc12	840
COc1cccc(C(=O)N2CCC3(C2)C(=O)N(C)c2ccccc23)c1OC (stereo unspecified)	749
CN(C)S(=O)(=O)c1cccc(-c2nnc(-c3ccc(Cl)cc3)o2)c1	1000
CC(NC(=O)Cn1cnc(-c2noc(-c3cccnc3)n2)c1)c1ccccc1 (stereo unspecified)	823
CCc1nnc2ccc(-c3noc(Cc4ccc(C)cc4)n3)cn12	918
CCCCNC(=O)C1CCCN(c2nnc(C)c3c(C)n(-c4ccccc4)nc23)C1 (stereo unspecified)	686
CCOc1ccccc1CNC(=O)C1CCN(S(=O)(=O)c2cn(CC)cn2)CC1	739
CN(C)c1ncncc1N1CCC(C(=O)N2CCCC2)CC1	567
CC(=O)c1cccc(NC(=O)Cn2c(=O)n(-c3ccccc3)c(=O)c3c2cc(C)n3C)c1	763
Cc1ccc(NC(=O)N2CCC(C(C)C(=O)Nc3cc(C)cc(C)c3)CC2)cc1 (stereo unspecified)	970
CCN(CC)Cc1cc2[nH]c3c4ccc(Cl)cc4ncc3c2cc1OC	747
Cc1ccc(CNC(=O)c2cccc(-c3nc4cccnc4n3C)c2)o1	722
COc1cc(S(N)(=O)=O)c(OC)cc1N	616
CCc1ccc(N2CC(c3noc(-c4cc(OC)cc(OC)c4)n3)CC2=O)cc1 (stereo unspecified)	1100
CN1CCCc2cc(C(=O)NCc3ccccc3Cl)sc21	964
COc1ccc(OC)c(NC(=O)Nc2c(-c3ccc(F)cc3)nc3ccccn23)c1	625
CCCn1c2ccccc2c2cnn(CC(=O)NCCN3CCCCC3C)c(=O)c21 (stereo unspecified)	680
COc1ccc(-c2nc(-c3cn(Cc4ccccc4)nn3)no2)cc1OC	892
CC(C)(C)NC(=O)c1cc2c(s1)N(CC1CC1)CCCC2	1200
COc1ncc(C(=O)NC2CCC(C)CC2)cn1 (stereo unspecified)	748
O=C(CSc1ccc(N2CCCC(C(=O)NC3CC3)C2)nn1)Nc1ccccc1Br (stereo unspecified)	664
O=C(c1ccsc1)N1CCC(OCc2nc(C3CC3)no2)CC1	762
O=C(Cc1nnc2cc(-c3nc(C4CC4)no3)ccn12)NCC1CC1	820
COc1ccc(N2CCN(c3ccc(-c4nc(-c5cccc(F)c5)no4)cn3)CC2)cc1	1310

Other lines, results leading:

RP-LC retention time [s]	Compound
658	Cc1ccc(NC(=O)Cn2c(N3CCOCC3)nc(C)cc2=O)c(C)c1
598	CCn1c(CCNC(=O)c2ccccc2)nc2cccnc21
893	COc1ccc(NS(=O)(=O)c2cc3c(s2)CCN(C(=O)C2CCC2)C3)cc1Cl
641	CNc1nc(Nc2ccc(OC)cc2)nc2ccccc12
619	CCCCC(=O)Nc1ccc2c(c1)nc(CN1CCN(C(=O)c3ccco3)CC1)n2C
909	CCOC(=O)c1nc(N(C)c2ccc(F)cc2)c2ccccc2n1
677	O=S(=O)(c1ccccc1)c1nnn2c1nc(N1CCN(c3ccccn3)CC1)c1ccccc12
687	O=C(Nc1nc2cccc(-c3ccc(CN4CCS(=O)(=O)CC4)cc3)n2n1)C1CC1
698	Cc1ccc2[nH]cc(CCN3CC(C(=O)N4CCc5ccccc5C4)CC3=O)c2c1 (stereo unspecified)
650	CC(C)CC(=O)Nc1c(-c2ccc(F)cc2)nc2ccccn12
718	O=C1NCCCn2cc(S(=O)(=O)NCc3cccc(C(F)(F)F)c3)cc21
630	CCN1C(=O)C2(CCN(C(=O)c3cn(C)cn3)CC2)c2ccccc21
824	Cc1ccc(CNC(=O)c2ccc3c(c2)CCN3C(=O)C2CC2)cc1
947	COc1ccc(OCc2nn3c(-c4ccc(OC)cc4)nnc3s2)cc1
693	CCn1cc(CCNC(=O)Nc2ccccc2)c2cccnc21
663	CS(=O)(=O)N(C1CCOCC1)C1CN(C(=O)c2n[nH]c3ccccc23)C1
919	CCN1c2ccc(C)cc2C(=O)NC12CCN(C(=O)Cc1ccc(Cl)cc1)CC2
804	COc1ccc(Cl)cc1NC(=O)Cn1nc2c(N3CCCCCC3)nccn2c1=O
698	CCN1CCN(c2ccc(-c3nc(-c4cccc(F)c4)no3)cn2)CC1

RP-LC retention time [s]	Compound
877	CN1c2cc(C(=O)N3CCN(c4ccccc4F)CC3)ccc2C(=O)N2CCCCC21 (stereo unspecified)
921	COc1ccc(-c2nnc(COc3ccc(NC(=O)c4ccc(C)s4)cc3)o2)cc1
905	Cc1ccc(S(=O)(=O)N2CCC(CCNC(=O)NC3CCCCC3)CC2)cc1
1170	Cc1ccc(-c2nc(-c3ccc4nnn(C)c4c3)no2)c(C)c1
970	Cc1ccc(N2C=C(C(=O)N3CCOCC3)S(=O)(=O)c3ccc(Cl)cc32)cc1Cl
625	Cc1nn(CC(=O)NCCN(C)C)c(=O)c2cc(-c3ccccc3)nn12
1000	CCC1Oc2ccc(S(=O)(=O)N3CCC(C(=O)Nc4ccc(C(C)C)cc4)CC3)cc2NC1=O (stereo unspecified)
732	COCCCNC(=O)c1ccc2c(c1)N(Cc1ccccc1)C(=O)CO2
708	COc1ccc(CNC(=O)c2ccc3c(c2)nc2n3CCN(C(C)C)C2=O)c(OC)c1
572	COc1ccccc1N1CCN(CCNC(=O)Cc2ccc(Cl)cc2)CC1
645	CCCN1C(=O)COc2cc(-c3noc(C(=O)NCC4CCCN4CC)n3)ccc21 (stereo unspecified)
975	CCN1C=C(C(=O)OCc2cc(F)ccc2F)C(C)=NS1(=O)=O
661	CCOCCCNC(=O)CC1CCN(C(=O)c2[nH]c(C)cc2C)CC1
816	Cn1c(=O)c(N2CCC(NC(=O)NCc3cccc(F)c3)CC2)nc2ccccc21
1250	Cc1c(Cl)cccc1S(=O)(=O)N1CCc2nc(-c3ccc(F)cc3)ncc2C1
650	CCCNC(=O)CCNc1c(-c2cccc(F)c2)nc2cnccn12
719	Cc1nc(-c2csc(S(=O)(=O)N3CCC(C(=O)N4CCOCC4)CC3)c2)no1
754	COc1ccc(CNC(=O)C2CCCN(c3ncnc4c3oc3ccccc34)C2)c(OC)c1 (stereo unspecified)
734	COc1cccc(-n2nnc(C(=O)O)c2C(C)C)c1
